Results reported in US9686988B2, “Pesticidal compounds based on arylthiosulfonamide derivatives” (Syngenta Participations AG, priority 2012, dated 2017).

How the values were obtained:
Format in all cases: in vivo
Tetranychus urticae = Tetranychus urticae (two-spotted spider mite), bean leaf disc spray test; conditions: foliar, 192 h, application rate of 200 ppm, mortality (mobile stages) 8 days after infestation, mixed ages
Protocol: Tetranychus urticae (Two-Spotted Spider Mite):
Bean leaf discs on agar in 24-well microtiter plates were sprayed with aqueous test solutions prepared from 10′000 ppm DMSO stock solutions. After drying the leaf discs were infested with a mite population of mixed ages. The samples were assessed for mortality (mobile stages) 8 days after infestation.

Thrips tabaci = Thrips tabaci (onion thrips), sunflower leaf disc spray test; conditions: foliar, 144 h, application rate of 200 ppm, mortality 6 days after infestation, mixed ages
Protocol: Thrips tabaci (Onion Thrips):
Sunflower leaf discs were placed on agar in 24-well microtiter plates and sprayed with aqueous test solutions prepared from 10′000 ppm DMSO stock solutions. After drying the leaf discs were infested with a thrips population of mixed ages. The samples were assessed for mortality 6 days after infestation.

Plutella xylostella = Plutella xylostella (diamond back moth), L2 larvae on artificial diet; conditions: 120 h, application rate of 200 ppm, mortality and growth inhibition 5 days after infestation
Protocol: Plutella xylostella (Diamond Back Moth):
(§1) 24-well microtiter plates with artificial diet were treated with aqueous test solutions prepared from 10′000 ppm DMSO stock solutions by pipetting. After drying, the plates were infested with L2 larvae (10 to 15 per well). The samples were assessed for mortality and growth inhibition 5 days after infestation. Control of Plutella xyllostella by a test sample is noted when at least one of mortality and growth inhibition is better than the untreated sample.

Diabrotica balteata [1] = assay: Diabrotica balteata (corn rootworm), L2 larvae on artificial diet; conditions: 120 h, application rate of 200 ppm, mortality and growth inhibition 5 days after infestation
Protocol: Diabrotica balteata (Corn Rootworm):
as §1, with “(6” for “(10”, “10” for “15”, “Diabrotica balteata” for “Plutella xyllostella”

Spodoptera littoralis = Spodoptera littoralis (Egyptian cotton leaf worm), cotton leaf disc spray test; conditions: foliar, 72 h, application rate of 200 ppm, mortality, anti-feedant effect, growth inhibition 3 days after infestation, L1 larvae
Protocol: Spodoptera littoralis (Egyptian Cotton Leaf Worm)
Cotton leaf discs were placed on agar in 24-well microtiter plates and sprayed with aqueous test solutions prepared from 10′000 ppm DMSO stock solutions. After drying the leaf discs were infested with five L1 larvae. The samples were assessed for mortality, anti-feedant effect, and growth inhibition 3 days after infestation. Control of Spodoptera littoralis by a test sample is noted when at least one of mortality, anti-feedant effect, and growth inhibition is better than the untreated sample.

Heliothis virescens = Heliothis virescens (tobacco budworm), eggs on artificial diet; conditions: 120 h, application rate of 200 ppm, egg mortality, larval mortality, growth inhibition 5 days after infestation
Protocol: Heliothis virescens (Tobacco Budworm):
Eggs (0-24 h old) were placed in 24-well microtiter plates on artificial diet and treated with aqueous test solutions prepared from 10′000 ppm DMSO stock solutions by pipetting. The samples were assessed for egg mortality, larval mortality and growth inhibition 5 days after infestation. Control of Heliothis virescens by a test sample is noted when at least one of egg mortality, larval mortality and growth inhibition is better than the untreated sample.

Myzus persicae = Myzus persicae (green peach aphid), sunflower leaf disc spray test; conditions: foliar, 144 h, read-out: mortality of Myzus persicae
Protocol: Myzus persicae (Green Peach Aphid):
Sunflower leaf discs were placed on agar in a 24-well microtiter plate and sprayed with aqueous test solutions prepared from 10′000 ppm DMSO stock solutions. After drying, the leaf discs were infested with an aphid population of mixed ages. The samples were assessed for mortality 6 days after infestation.

Diabrotica balteata [2] = assay: Diabrotica balteata (corn rootworm), sprayed maize sprouts; conditions: 96 h, application rate of 200 ppm, 4 days after infestation, L2 larvae
Protocol: Diabrotica balteata, (Corn Rootworm)
Maize sprouts, placed on an agar layer in 24-well microtiter plates were treated with aqueous test solutions prepared from 10′000 ppm DMSO stock solutions by spraying. After drying, the plates were infested with L2 larvae (6 to 10 per well). The samples were assessed for mortality 4 days after infestation.

NS(=O)(=O)CSc1ccc(C2=NOC(c3cc(Cl)cc(Cl)c3)(C(F)(F)F)C2)cc1Br (stereo not shown) [Compound A1, [2-bromo-4-[5-(3,5-dichlorophenyl)-5-(trifluoromethyl)-4H-isoxazol-3-yl]phenyl]sulfanylmethanesulfonamide]
≥ 80%: pest or weed control at 200 ppm (Tetranychus urticae) | pest or weed control at 200 ppm (Thrips tabaci) | pest or weed control at 200 ppm (Plutella xylostella) | pest or weed control at 200 ppm (Diabrotica balteata [1]) | pest or weed control at 200 ppm (Spodoptera littoralis) | pest or weed control at 200 ppm (Heliothis virescens)

CCN(CC)S(=O)(=O)CSc1ccc(C2=NOC(c3cc(Cl)cc(Cl)c3)(C(F)(F)F)C2)cc1Br (stereo not shown) [Compound A2, 1-[2-bromo-4-[5-(3,5-dichlorophenyl)-5-(trifluoromethyl)-4H-isoxazol-3-yl]phenyl]sulfanyl-N,N-diethyl-methanesulfonamide]
≥ 80%: pest or weed control at 200 ppm (Tetranychus urticae) | pest or weed control at 200 ppm (Thrips tabaci) | pest or weed control at 200 ppm (Plutella xylostella) | pest or weed control at 200 ppm (Diabrotica balteata [1]) | pest or weed control at 200 ppm (Spodoptera littoralis) | pest or weed control at 200 ppm (Heliothis virescens)

CCNS(=O)(=O)CSc1ccc(C2=NOC(c3cc(Cl)cc(Cl)c3)(C(F)(F)F)C2)cc1Br (stereo not shown) [Compound A3, 1-[2-bromo-4-[5-(3,5-dichlorophenyl)-5-(trifluoromethyl)-4H-isoxazol-3-yl]phenyl]sulfanyl-N-ethyl-methanesulfonamide]
≥ 80%: pest or weed control at 200 ppm (Tetranychus urticae) | pest or weed control at 200 ppm (Thrips tabaci) | mortality at 200 ppm (Myzus persicae) | pest or weed control at 200 ppm (Plutella xylostella) | pest or weed control at 200 ppm (Diabrotica balteata [1]) | pest or weed control at 200 ppm (Spodoptera littoralis) | pest or weed control at 200 ppm (Heliothis virescens)

NS(=O)(=O)CS(=O)(=O)c1ccc(C2=NOC(c3cc(Cl)cc(Cl)c3)(C(F)(F)F)C2)cc1Br (stereo not shown) [Compound A4, [2-bromo-4-[5-(3,5-dichlorophenyl)-5-(trifluoromethyl)-4H-isoxazol-3-yl]phenyl]sulfonylmethanesulfonamide]
≥ 80%: pest or weed control at 200 ppm (Tetranychus urticae) | pest or weed control at 200 ppm (Plutella xylostella) | pest or weed control at 200 ppm (Diabrotica balteata [1]) | pest or weed control at 200 ppm (Spodoptera littoralis) | pest or weed control at 200 ppm (Heliothis virescens)

CCNS(=O)(=O)CSc1ccc(C2=NO[C@@](c3cc(Cl)cc(Cl)c3)(C(F)(F)F)C2)cc1Br [Compound B1, 1-[2-bromo-4-[(5S)-5-(3,5-dichlorophenyl)-5-(trifluoromethyl)-4H-isoxazol-3-yl]phenyl]sulfanyl-N-ethyl-methanesulfonamide]
≥ 80%: pest or weed control at 200 ppm (Tetranychus urticae) | pest or weed control at 200 ppm (Thrips tabaci) | mortality at 200 ppm (Myzus persicae) | pest or weed control at 200 ppm (Plutella xylostella) | pest or weed control at 200 ppm (Diabrotica balteata [1]) | pest or weed control at 200 ppm (Spodoptera littoralis) | pest or weed control at 200 ppm (Heliothis virescens)

O=S(=O)(CSc1ccc(C2=NO[C@@](c3cc(Cl)cc(Cl)c3)(C(F)(F)F)C2)cc1Br)NCC(F)(F)F [Compound B2, 1-[2-bromo-4-[(5S)-5-(3,5-dichlorophenyl)-5-(trifluoromethyl)-4H-isoxazol-3-yl]phenyl]sulfanyl-N-(2,2,2-trifluoroethyl)-methanesulfonamide]
≥ 80%: pest or weed control at 200 ppm (Tetranychus urticae) | pest or weed control at 200 ppm (Thrips tabaci) | pest or weed control at 200 ppm (Plutella xylostella) | pest or weed control at 200 ppm (Diabrotica balteata [1]) | pest or weed control at 200 ppm (Spodoptera littoralis) | pest or weed control at 200 ppm (Heliothis virescens)

O=S(=O)(CSc1ccc(C2=NO[C@@](c3cc(Cl)cc(Cl)c3)(C(F)(F)F)C2)cc1Br)NC1CC1 [Compound B3, 1-[2-bromo-4-[(5S)-5-(3,5-dichlorophenyl)-5-(trifluoromethyl)-4H-isoxazol-3-yl]phenyl]sulfanyl-N-cyclopropyl-methanesulfonamide]
≥ 80%: pest or weed control at 200 ppm (Tetranychus urticae) | pest or weed control at 200 ppm (Thrips tabaci) | pest or weed control at 200 ppm (Plutella xylostella) | pest or weed control at 200 ppm (Diabrotica balteata [1]) | pest or weed control at 200 ppm (Spodoptera littoralis) | pest or weed control at 200 ppm (Heliothis virescens)

CC(C)NS(=O)(=O)CSc1ccc(C2=NO[C@@](c3cc(Cl)cc(Cl)c3)(C(F)(F)F)C2)cc1Br [Compound B4, 1-[2-bromo-4-[(5S)-5-(3,5-dichlorophenyl)-5-(trifluoromethyl)-4H-isoxazol-3-yl]phenyl]sulfanyl-N-isopropyl-methanesulfonamide]
≥ 80%: pest or weed control at 200 ppm (Tetranychus urticae) | pest or weed control at 200 ppm (Thrips tabaci) | mortality at 200 ppm (Myzus persicae) | pest or weed control at 200 ppm (Plutella xylostella) | pest or weed control at 200 ppm (Diabrotica balteata [1]) | pest or weed control at 200 ppm (Spodoptera littoralis) | pest or weed control at 200 ppm (Heliothis virescens)

C#CCNS(=O)(=O)CSc1ccc(C2=NO[C@@](c3cc(Cl)cc(Cl)c3)(C(F)(F)F)C2)cc1Br [Compound B5, 1-[2-bromo-4-[(5S)-5-(3,5-dichlorophenyl)-5-(trifluoromethyl)-4H-isoxazol-3-yl]phenyl]sulfanyl-N-propargyl-methanesulfonamide]
≥ 80%: pest or weed control at 200 ppm (Tetranychus urticae) | pest or weed control at 200 ppm (Thrips tabaci) | pest or weed control at 200 ppm (Plutella xylostella) | pest or weed control at 200 ppm (Diabrotica balteata [1]) | pest or weed control at 200 ppm (Spodoptera littoralis) | pest or weed control at 200 ppm (Heliothis virescens)

O=S(=O)(CS(=O)(=O)c1ccc(C2=NOC(c3cc(Cl)cc(Cl)c3)(C(F)(F)F)C2)cc1Br)NC1CC1 (stereo not shown) [Compound B6, 1-[2-bromo-4-[5-(3,5-dichlorophenyl)-5-(trifluoromethyl)-4H-isoxazol-3-yl]phenyl]sulfonyl-N-cyclopropyl-methanesulfonamide]
≥ 80%: pest or weed control at 200 ppm (Tetranychus urticae) | pest or weed control at 200 ppm (Thrips tabaci) | pest or weed control at 200 ppm (Plutella xylostella) | pest or weed control at 200 ppm (Diabrotica balteata [1]) | pest or weed control at 200 ppm (Spodoptera littoralis) | pest or weed control at 200 ppm (Heliothis virescens)

CCN(CC)S(=O)(=O)CSc1ccc(C2=CSC(c3cc(Cl)cc(Cl)c3)(C(F)(F)F)C2)cc1Br (stereo not shown) [Compound D1, 1-[2-bromo-4-[2-(3,5-dichlorophenyl)-2-(trifluoromethyl)-3H-thiophen-4-yl]phenyl]sulfanyl-N,N-diethyl-methanesulfonamide]
≥ 80%: pest or weed control at 200 ppm (Tetranychus urticae)

CCNS(=O)(=O)CSc1ccc(C2=CSC(c3cc(Cl)cc(Cl)c3)(C(F)(F)F)C2)cc1Br (stereo not shown) [Compound D2, 1-[2-bromo-4-[2-(3,5-dichlorophenyl)-2-(trifluoromethyl)-3H-thiophen-4-yl]phenyl]sulfanyl-N-ethyl-methanesulfonamide]
≥ 80%: mortality at 200 ppm (Diabrotica balteata [2]) | pest or weed control at 200 ppm (Plutella xylostella) | pest or weed control at 200 ppm (Spodoptera littoralis) | pest or weed control at 200 ppm (Heliothis virescens)
